In ChEMBL document CHEMBL1126399, “Synthesis and enzymatic properties of a deoxy analog of phosphatidylinositol” (Bioorg Med Chem Lett, 1992):

Experiment: Inhibition of phosphatidylinositol (PI) hydrolysis
Type: functional

- IC50: 2000 µM
Compound: CCCCCCCCCCCCCCCC(=O)OC[C@H](COP(=O)(O)O[C@H]1C[C@@H](O)C(O)[C@@H](O)C1O)OC(=O)CCCCCCCCCCCCCCC (stereo partly specified)
